According to ChEMBL document CHEMBL1201862, “PubChem BioAssay data set” (2004):
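Dose response: 5 concentrations. Exposure: 48 h. Format: 96-well plates. Endpoint: linear interpolation; highest concentration if not reached. GI50 = concentration required for 50% inhibition of growth.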 Activity calls are given as the source filed them. Rule as the data show it: active = GI50 up to about 1.1 µM and inactive = higher.

Columns and labels:
Experiment in all cases: growth of human tumour cells (NCI), 48 h
BT-549 = test system: BT-549
MDA-MB-231 = test system: MDA-MB-231
MDA-N = test system: MDA-N
PC-3 = test system: PC-3
T47D = test system: T47D
M19-MEL = test system: M19-MEL

Structure (SMILES) | GI50 (BT-549) | GI50 (MDA-MB-231) | GI50 (MDA-N) | GI50 (PC-3) | GI50 (T47D) | GI50 (M19-MEL)
COc1ccc(/C=C2/SC(c3ccccc3)N(NC(=O)CCCCCCCCC(=O)NN3C(=O)/C(=C\c4ccc(OC)c(OC)c4)SC3c3ccccc3)C2=O)cc1OC (stereo unspecified) | > 100 µM (inactive) | 74.6 µM (inactive) | 35.2 µM (inactive) | 76 µM (inactive) | 35.6 µM (inactive) | 
CC(C)C1(O)C(=O)N(c2c(F)c(F)c(F)c(F)c2F)C(=S)N1CCSc1ccccc1 (stereo unspecified) | 16.1 µM (inactive) | 13.1 µM (inactive) | 17.2 µM (inactive) | 15.7 µM (inactive) | 16.2 µM (inactive) | 
Cc1ncc2c(n1)CCC1=C2OS(=O)(=O)CC1N(C)C (stereo unspecified) | > 100 µM (inactive) | > 100 µM (inactive) | > 100 µM (inactive) | > 100 µM (inactive) | 63.1 µM (inactive) | 
O=c1ccn(C2OC(COC3CCCCO3)C(OC3CCCCO3)C2OC2CCCCO2)c(=O)n1-c1ccccc1 (stereo unspecified) |  | > 100 µM (inactive) | > 100 µM (inactive) | > 100 µM (inactive) | > 100 µM (inactive) | 
O=C(O)CCCCCCC[C@H]1S[C@H]1CCCCCCO |  |  |  |  |  | > 100 µM (inactive)
CO[C@H]1c2cccc3cccc(c23)[C@@H]1n1[nH]c(=O)n(C(C)(C)C)c1=O | > 100 µM (inactive) | > 100 µM (inactive) | > 100 µM (inactive) | > 100 µM (inactive) | > 100 µM (inactive) | 
S=C(N/N=C/c1ccccn1)N1CCCCCC1 | < 0.01 µM (active) | < 0.01 µM (active) | 0.0773 µM (active) | < 0.01 µM (active) | < 0.01 µM (active) | 
CCN(CC)CCNC(=O)c1cc2cc(NC(=O)c3cc4cc(NC(=O)c5cc6cc(N)ccc6[nH]5)ccc4[nH]3)ccc2[nH]1 | > 100 µM (inactive) | > 100 µM (inactive) | > 100 µM (inactive) | > 100 µM (inactive) | > 100 µM (inactive) | 
COC(=O)C1OC2(CCCC3CC32)O[C@H]1C(=O)OC (stereo partly specified) | > 100 µM (inactive) | > 100 µM (inactive) | > 100 µM (inactive) | > 100 µM (inactive) |  | 
CC(C)(C)OC(=O)NC(CSSCC(NC(=O)OC(C)(C)C)C(=O)O)C(=O)O (stereo unspecified) | > 100 µM (inactive) | > 100 µM (inactive) | > 100 µM (inactive) | > 100 µM (inactive) | > 100 µM (inactive) | 
COc1ccc(-c2nc(-c3cnccn3)n(Cc3ccccc3)n2)cc1 | > 100 µM (inactive) | > 100 µM (inactive) | > 100 µM (inactive) | > 100 µM (inactive) | > 100 µM (inactive) | 
COc1ccc(CC2(O)C3CC4CCC2C4C3)cc1 (stereo unspecified) | 36.6 µM (inactive) |  |  | 39.2 µM (inactive) |  | 
COC(CC1(/C=C/O[Si](C(C)C)(C(C)C)C(C)C)C(=O)N(COCC[Si](C)(C)C)c2ccccc21)OC (stereo unspecified) |  | 21.1 µM (inactive) | 24.9 µM (inactive) | 22.1 µM (inactive) | > 100 µM (inactive) | 
COc1cc(/C=C/C(=O)CC(=O)/C=C/c2ccc(O)c(OC)c2)ccc1O [CURCUMIN] | 4.97 µM (inactive) | 17.8 µM (inactive) |  | 8.79 µM (inactive) | 8.36 µM (inactive) | 
COC(=O)c1cc2c3c(cc(N(C)C)c2[nH]1)N(C(=O)c1cc2cc(OC)c(OC)c(OC)c2[nH]1)CC3CCl (stereo unspecified) | 0.018 µM (active) | 0.00419 µM (active) | 0.00427 µM (active) | 0.00366 µM (active) | < 0.0025 µM (active) | 
O=C1c2ccccc2C(=O)c2c1sc1nc3ccccc3n21 | 1.98 µM (inactive) | 2.02 µM (inactive) | 1.79 µM (inactive) | 2.64 µM (inactive) | 1.83 µM (inactive) | 
O=c1cnnc2sc(=S)[nH]n12 | 14.1 µM (inactive) |  | 36.2 µM (inactive) | 26.7 µM (inactive) |  | 
O=C(Nc1ccn(C2CC(O)C(COC(c3ccccc3)(c3ccccc3)c3ccccc3)O2)c(=O)n1)c1ccccc1 (stereo unspecified) |  | 3.05 µM (inactive) | 1.96 µM (inactive) | 2.43 µM (inactive) | 4.46 µM (inactive) | 
COc1ccc(C(=O)/C=C/S/C(=N/C#N)SC)cc1 |  | 13.7 µM (inactive) |  | 33.8 µM (inactive) | 20.7 µM (inactive) | 
Cc1ccc(/C=C2\Cc3c(C)cc(C)cc3C2=O)c(C(=O)O)c1 | 28.6 µM (inactive) |  | 89.3 µM (inactive) | 41.9 µM (inactive) | 82.2 µM (inactive) | 
C=C1CC[C@](C)(O)[C@@]2(C)CC[C@H]3C(=C(C)C)C(=O)C[C@]3(C)C[C@H]12 | 25.8 µM (inactive) | > 50 µM (inactive) |  | 21.1 µM (inactive) | 26.5 µM (inactive) | 
CCOC(=O)C(NC(=O)c1cccc(Cl)c1)(Nc1ccc(S(=O)(=O)Nc2cc(C)on2)cc1)C(F)(F)F (stereo unspecified) |  | > 100 µM (inactive) | > 100 µM (inactive) | > 100 µM (inactive) | > 100 µM (inactive) | 
Cc1ccc2nc(NC(=O)/C(Cc3nc4ccc(Cl)cc4nc3O)=N\NC(C)(C)C)sc2c1 | > 100 µM (inactive) | > 100 µM (inactive) | > 100 µM (inactive) | > 100 µM (inactive) | > 100 µM (inactive) | 
Cc1c(N2C(=O)/C(=C/c3ccc(Cl)cc3)N=C2c2ccccc2)c(=O)n(-c2ccccc2)n1C | 47.4 µM (inactive) | 33.8 µM (inactive) | 24.8 µM (inactive) | 33.9 µM (inactive) | 29.6 µM (inactive) | 
